Biological target: T1, AqpZ (Escherichia coli, UniProt P60844)
T1 construct: C-terminal GFP-His tag cut by TEV protease; expressed in E. coli BL21(DE3); DDM-purified, C8E4 for native MS; homotetramer about 102 kDa with lipids (17-, m/z 6000)
T1 sequence (P60844 1-231): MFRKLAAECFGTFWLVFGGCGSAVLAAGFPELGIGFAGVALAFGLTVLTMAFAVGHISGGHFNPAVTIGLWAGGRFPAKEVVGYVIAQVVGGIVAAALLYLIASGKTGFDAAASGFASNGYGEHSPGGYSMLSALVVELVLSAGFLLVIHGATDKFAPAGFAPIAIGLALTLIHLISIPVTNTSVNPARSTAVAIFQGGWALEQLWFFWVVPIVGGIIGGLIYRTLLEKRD
Experiment: native MS with single lipid standard
Format: binding
Settings: 200 mM ammonium acetate pH 7.0, 2xCMC C8E4

SMILES | native MS with single lipid standard
CCCCCCCC/C=C\CCCCCCCC(=O)OC[C@H](COP(=O)(O)OCC(O)COP(=O)(O)OC[C@@H](COC(=O)CCCCCCC/C=C\CCCCCCCC)OC(=O)CCCCCCC/C=C\CCCCCCCC)OC(=O)CCCCCCC/C=C\CCCCCCCC (some centres unmarked) [CDL 18:1(9Z)] | The resulting native mass spectra confirmed that all three lipid classes bind to the membrane protein
CCCCCCCC/C=C\CCCCCCCC(=O)OC[C@H](COP(=O)(O)OCC(O)CO)OC(=O)CCCCCCC/C=C\CCCCCCCC (some centres unmarked) [DOPG] | The resulting native mass spectra confirmed that all three lipid classes bind to the membrane protein

From publication PMC12424025, “Deep Structural Characterization of Protein-Bound Lipids via Native MS and Ultraviolet Photodissociation” (Analytical Chemistry, 2025)
